Assays:
[1] = target: T1, Phosphatidylinositol 4,5-bisphosphate 3-kinase catalytic subunit alpha isoform (Homo sapiens, UniProt P42336); test: Inhibition of human recombinant PI3Kalpha using PIP2 by Kinase-Glo Plus assay
Target sequence in this assay (P42336 whole entry, canonical isoform): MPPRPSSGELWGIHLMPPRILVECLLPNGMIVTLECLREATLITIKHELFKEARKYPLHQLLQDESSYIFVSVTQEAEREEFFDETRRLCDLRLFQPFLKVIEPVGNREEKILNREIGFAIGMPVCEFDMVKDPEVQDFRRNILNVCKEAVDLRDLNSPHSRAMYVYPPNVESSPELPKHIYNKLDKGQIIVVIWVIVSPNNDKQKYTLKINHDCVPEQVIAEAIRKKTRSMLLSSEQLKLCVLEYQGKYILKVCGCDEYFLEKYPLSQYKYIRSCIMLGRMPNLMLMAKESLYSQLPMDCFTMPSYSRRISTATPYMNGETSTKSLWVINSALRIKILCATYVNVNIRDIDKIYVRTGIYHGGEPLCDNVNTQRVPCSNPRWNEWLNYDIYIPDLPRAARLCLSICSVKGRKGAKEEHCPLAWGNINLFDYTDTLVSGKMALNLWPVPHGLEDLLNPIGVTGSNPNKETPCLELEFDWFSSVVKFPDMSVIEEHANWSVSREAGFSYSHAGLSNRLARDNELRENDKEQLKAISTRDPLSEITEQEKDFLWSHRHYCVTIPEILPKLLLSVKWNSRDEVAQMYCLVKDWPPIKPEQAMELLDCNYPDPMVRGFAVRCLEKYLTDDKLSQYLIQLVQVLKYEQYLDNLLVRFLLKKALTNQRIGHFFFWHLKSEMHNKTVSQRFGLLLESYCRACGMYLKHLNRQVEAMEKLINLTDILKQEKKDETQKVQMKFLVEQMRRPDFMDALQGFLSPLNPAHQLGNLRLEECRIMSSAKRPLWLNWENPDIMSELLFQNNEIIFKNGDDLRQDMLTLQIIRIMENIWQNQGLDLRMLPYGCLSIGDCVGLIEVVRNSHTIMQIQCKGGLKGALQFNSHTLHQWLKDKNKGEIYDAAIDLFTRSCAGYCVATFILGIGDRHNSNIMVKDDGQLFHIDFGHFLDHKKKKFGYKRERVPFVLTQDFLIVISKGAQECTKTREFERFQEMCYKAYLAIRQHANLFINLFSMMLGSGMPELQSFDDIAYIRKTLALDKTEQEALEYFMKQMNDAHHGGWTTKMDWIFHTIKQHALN

[2] = target: T2, Phosphatidylinositol 4,5-bisphosphate 3-kinase catalytic subunit beta isoform (Homo sapiens, UniProt P42338); test: Inhibition of human recombinant PI3Kbeta using PIP2 by Kinase-Glo Plus assay
[3] = target: Phosphatidylinositol 4,5-bisphosphate 3-kinase catalytic subunit gamma isoform (Homo sapiens, UniProt P48736); test: Inhibition of human recombinant PI3Kgamma using PIP2 by Kinase-Glo Plus assay
Chain of Phosphatidylinositol 4,5-bisphosphate 3-kinase catalytic subunit gamma isoform (P48736 whole entry, canonical isoform): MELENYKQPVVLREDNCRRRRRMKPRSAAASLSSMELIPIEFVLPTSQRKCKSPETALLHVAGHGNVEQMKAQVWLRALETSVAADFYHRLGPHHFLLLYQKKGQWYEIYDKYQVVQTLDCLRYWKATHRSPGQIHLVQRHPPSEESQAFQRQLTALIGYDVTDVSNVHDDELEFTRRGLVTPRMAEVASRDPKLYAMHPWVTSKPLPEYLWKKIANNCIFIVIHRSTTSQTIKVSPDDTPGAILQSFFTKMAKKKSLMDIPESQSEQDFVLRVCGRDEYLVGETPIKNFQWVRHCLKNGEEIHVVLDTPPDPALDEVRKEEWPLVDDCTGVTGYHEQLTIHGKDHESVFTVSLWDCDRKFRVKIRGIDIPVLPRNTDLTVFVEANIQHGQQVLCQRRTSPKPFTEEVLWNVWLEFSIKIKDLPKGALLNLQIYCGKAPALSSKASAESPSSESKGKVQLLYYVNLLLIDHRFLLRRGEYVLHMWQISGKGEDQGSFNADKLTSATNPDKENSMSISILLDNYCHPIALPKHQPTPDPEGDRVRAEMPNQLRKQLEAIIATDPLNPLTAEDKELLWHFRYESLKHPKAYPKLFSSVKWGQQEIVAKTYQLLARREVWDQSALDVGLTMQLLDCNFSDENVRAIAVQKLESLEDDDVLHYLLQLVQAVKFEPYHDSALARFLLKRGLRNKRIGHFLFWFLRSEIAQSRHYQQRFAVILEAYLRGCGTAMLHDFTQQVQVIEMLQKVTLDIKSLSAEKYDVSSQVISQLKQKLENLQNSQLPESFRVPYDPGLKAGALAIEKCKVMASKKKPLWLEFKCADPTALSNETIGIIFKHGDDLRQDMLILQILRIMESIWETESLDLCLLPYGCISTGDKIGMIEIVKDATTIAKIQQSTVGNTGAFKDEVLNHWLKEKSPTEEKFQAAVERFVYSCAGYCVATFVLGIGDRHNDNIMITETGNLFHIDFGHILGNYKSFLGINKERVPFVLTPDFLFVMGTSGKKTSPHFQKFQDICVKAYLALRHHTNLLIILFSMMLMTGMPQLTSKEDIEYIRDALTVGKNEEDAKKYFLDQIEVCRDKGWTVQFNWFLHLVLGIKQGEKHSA

[4] = target: T3, Phosphatidylinositol 4,5-bisphosphate 3-kinase catalytic subunit delta isoform (Homo sapiens, UniProt O00329); test: Inhibition of human recombinant PI3Kdelta using PIP2 by Kinase-Glo Plus assay
T3 sequence (O00329 whole entry): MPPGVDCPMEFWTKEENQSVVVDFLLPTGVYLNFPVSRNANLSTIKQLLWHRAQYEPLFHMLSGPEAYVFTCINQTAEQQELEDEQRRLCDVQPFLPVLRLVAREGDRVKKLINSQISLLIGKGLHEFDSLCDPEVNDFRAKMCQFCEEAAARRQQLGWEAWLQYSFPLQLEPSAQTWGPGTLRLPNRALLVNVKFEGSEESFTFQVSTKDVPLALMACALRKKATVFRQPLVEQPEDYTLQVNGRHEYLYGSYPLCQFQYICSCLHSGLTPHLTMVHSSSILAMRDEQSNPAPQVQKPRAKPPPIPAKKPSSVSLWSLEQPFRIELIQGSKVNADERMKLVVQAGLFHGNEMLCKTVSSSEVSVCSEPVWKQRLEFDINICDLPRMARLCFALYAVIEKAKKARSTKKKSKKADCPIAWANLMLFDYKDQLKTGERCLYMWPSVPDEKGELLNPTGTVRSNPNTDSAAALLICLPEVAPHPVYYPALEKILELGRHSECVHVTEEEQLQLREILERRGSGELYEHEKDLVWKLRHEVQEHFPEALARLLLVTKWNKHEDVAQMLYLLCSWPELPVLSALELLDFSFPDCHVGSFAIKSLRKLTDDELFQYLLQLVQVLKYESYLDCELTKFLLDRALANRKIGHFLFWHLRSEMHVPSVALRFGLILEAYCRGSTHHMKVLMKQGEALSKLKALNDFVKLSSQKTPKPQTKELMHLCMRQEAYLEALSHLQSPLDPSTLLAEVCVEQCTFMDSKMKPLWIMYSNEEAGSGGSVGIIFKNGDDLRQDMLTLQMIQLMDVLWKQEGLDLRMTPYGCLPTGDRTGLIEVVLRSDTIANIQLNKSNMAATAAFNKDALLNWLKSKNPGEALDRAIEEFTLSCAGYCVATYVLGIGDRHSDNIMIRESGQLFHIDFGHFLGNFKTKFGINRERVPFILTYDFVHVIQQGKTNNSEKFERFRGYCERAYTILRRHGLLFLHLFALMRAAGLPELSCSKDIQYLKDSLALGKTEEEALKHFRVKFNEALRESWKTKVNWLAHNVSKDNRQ

[5] = target: T1, Phosphatidylinositol 4,5-bisphosphate 3-kinase catalytic subunit alpha isoform; test: Inhibition of PI3Kalpha mutant human BT474 cells assessed as inhibition of Akt phosphorylation at […] after 2 hrs; format: cell-based; conditions: bt-474
Target sequence in this assay (P42336 whole entry, looked up, canonical isoform): as the sequence (P42336 whole entry, canonical isoform) above

[6] = target: T2, Phosphatidylinositol 4,5-bisphosphate 3-kinase catalytic subunit beta isoform; test: Inhibition of PI3Kbeta in PTEN-null human MDA-MB-468 cells assessed as inhibition of Akt phosphorylation after 2 hrs; format: cell-based
[7] = Lipophilicity, log D of the compound at pH 7.4 by shake-flask method; format: physicochemical; conditions: buffer
[8] = Intrinsic clearance in cryopreserved human hepatocytes measured per 10^6 cells; format: ADME, cell-based, Hepatocyte; conditions: read-out: CLH
[9] = Apparent permeability from apical to basolateral side of human Caco2 cells; format: ADME, cell-based; conditions: Caco-2, read-out: permeability

T2 sequence (P42338 whole entry, canonical isoform): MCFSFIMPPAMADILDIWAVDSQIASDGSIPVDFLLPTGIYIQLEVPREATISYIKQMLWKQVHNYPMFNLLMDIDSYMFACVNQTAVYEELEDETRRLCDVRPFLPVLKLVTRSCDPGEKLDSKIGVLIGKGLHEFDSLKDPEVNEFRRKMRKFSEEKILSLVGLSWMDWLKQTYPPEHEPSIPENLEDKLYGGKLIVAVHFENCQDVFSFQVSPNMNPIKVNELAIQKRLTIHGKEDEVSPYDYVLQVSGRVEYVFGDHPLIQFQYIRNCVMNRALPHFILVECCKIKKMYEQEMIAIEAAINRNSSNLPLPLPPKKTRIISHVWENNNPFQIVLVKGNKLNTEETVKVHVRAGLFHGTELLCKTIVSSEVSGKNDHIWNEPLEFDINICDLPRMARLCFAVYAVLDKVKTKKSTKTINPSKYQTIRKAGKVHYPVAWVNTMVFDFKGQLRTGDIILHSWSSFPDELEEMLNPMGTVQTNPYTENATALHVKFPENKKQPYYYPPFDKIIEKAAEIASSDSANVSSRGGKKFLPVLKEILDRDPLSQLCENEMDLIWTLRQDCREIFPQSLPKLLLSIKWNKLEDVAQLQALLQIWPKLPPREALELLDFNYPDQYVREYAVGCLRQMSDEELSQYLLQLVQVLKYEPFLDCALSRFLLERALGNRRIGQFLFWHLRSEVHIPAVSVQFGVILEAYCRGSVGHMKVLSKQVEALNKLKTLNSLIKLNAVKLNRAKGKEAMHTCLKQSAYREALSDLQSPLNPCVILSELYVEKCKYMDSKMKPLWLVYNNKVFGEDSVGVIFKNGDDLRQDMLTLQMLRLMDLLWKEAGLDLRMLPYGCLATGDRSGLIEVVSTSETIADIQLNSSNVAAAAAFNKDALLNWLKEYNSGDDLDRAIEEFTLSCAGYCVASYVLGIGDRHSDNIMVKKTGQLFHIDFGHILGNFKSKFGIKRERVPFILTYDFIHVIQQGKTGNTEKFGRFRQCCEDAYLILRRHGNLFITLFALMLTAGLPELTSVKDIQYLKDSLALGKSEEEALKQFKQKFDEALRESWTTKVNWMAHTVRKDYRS

Structure (SMILES) | IC50 [1] [nM] | IC50 [2] [nM] | IC50 [3] [nM] | IC50 [4] [nM] | IC50 [5] [nM] | IC50 [6] [nM] | logD [7] | hepatocyte CLint [8] [µL/min/1e6 cells] | Papp A→B [9] [×10⁻⁶ cm/s]
C[C@@H](Oc1cc(F)cc(F)c1)c1cc(C(=O)N(C)C)cc2c(=O)cc(N3CCOCC3)oc12 | 970 | 17 | 13000 | 160 | 7400 | 132 | 2.2 | 7 | 31
CC(Nc1ccc(F)c(Cl)c1)c1cc(C(=O)N(C)C)cc2c(=O)cc(N3CCOCC3)oc12 (racemic) | 170 | 12 | 1800 | 64 | 5500 | 16 | 2.4 | 8 | –
CN(C)C(=O)c1cc(CN(C)c2cc(F)cc(F)c2)c2oc(N3CCOCC3)cc(=O)c2c1 | – | – | – | – | – | – | 2.6 | < 5 | 36
CC(Nc1ccc(F)cc1)c1cc(C(=O)N(C)C)cc2c(=O)cc(N3CCOCC3)oc12 (racemic) | 810 | 18 | 13000 | 110 | 12400 | 128 | 1.5 | < 3 | –
CC(Nc1cc(F)cc(F)c1)c1cc(C(=O)N2CCOCC2)cc2c(=O)cc(N3CCOCC3)oc12 (racemic) | 300 | 11 | 2400 | 115 | 6000 | 33 | 1.7 | < 3 | 4.8
CC(Nc1cccc(F)c1)c1cc(C(=O)N(C)C)cc2c(=O)cc(N3CCOCC3)oc12 (racemic) | 220 | 12 | 2600 | 73 | 2400 | 32 | 1.9 | < 3 | –
CC(Nc1cc(F)cc(F)c1)c1cc(C(=O)N2CCCC2)cc2c(=O)cc(N3CCOCC3)oc12 (racemic) | 98 | 9 | 700 | 50 | 400 | 2 | 2.7 | 6 | 8.5
CC(Nc1cc(Cl)cc(Cl)c1)c1cc(C(=O)N(C)C)cc2c(=O)cc(N3CCOCC3)oc12 (racemic) | 110 | 10 | 630 | 52 | 1900 | 17 | 3.2 | 18 | –
CC(Nc1cc(F)cc(F)c1)c1cc(C(=O)N2CCCCC2)cc2c(=O)cc(N3CCOCC3)oc12 (racemic) | 200 | 12 | 1000 | 59 | 3100 | 14 | 3.1 | 21 | –
CC(c1cc(C(=O)N2CCCC2)cc2c(=O)cc(N3CCOCC3)oc12)N(C)c1cc(F)cc(F)c1 (racemic) | 510 | 13 | 3500 | 120 | 5900 | 100 | 3.1 | 12 | –
CC(Nc1cccc(F)c1F)c1cc(C(=O)N(C)C)cc2c(=O)cc(N3CCOCC3)oc12 (racemic) | 370 | 13 | 4200 | 76 | 2200 | 24 | 1.9 | < 3 | 13
CC(Nc1cc(F)ccc1F)c1cc(C(=O)N(C)C)cc2c(=O)cc(N3CCOCC3)oc12 (racemic) | 450 | 19 | 6000 | 150 | 7000 | 60 | 1.8 | 6 | 12
CC(Nc1cccc(Cl)c1)c1cc(C(=O)N(C)C)cc2c(=O)cc(N3CCOCC3)oc12 (racemic) | 85 | 10 | 700 | 73 | 790 | 9 | 2.5 | < 4 | –
C[C@@H](Nc1cc(F)c(F)c(F)c1)c1cc(C(=O)N(C)C)cc2c(=O)cc(N3CCOCC3)oc12 | 110 | – | 1400 | 23 | 1500 | – | – | < 4 | –
Cc1cc(F)cc(NC(C)c2cc(C(=O)N(C)C)cc3c(=O)cc(N4CCOCC4)oc23)c1 (racemic) | 130 | 15 | 2200 | 110 | 2900 | 49 | 2.2 | 6 | –
C[C@H](Nc1cc(F)cc(F)c1)c1cc(C(=O)N(C)C)cc2c(=O)cc(N3CCO[C@@H](C)C3)oc12 | 130 | 9 | 2900 | 79 | 2600 | 12 | 2.6 | < 3 | –
CC(Nc1cc(F)cc(F)c1)c1cc(C(=O)N2CCC(O)CC2)cc2c(=O)cc(N3CCOCC3)oc12 (racemic) | 230 | 11 | 830 | 90 | 6400 | 17 | 1.8 | < 3 | 1

Now from value to compound:

IC50 [1] [nM] | IC50 [2] [nM] | IC50 [3] [nM] | IC50 [4] [nM] | IC50 [5] [nM] | IC50 [6] [nM] | logD [7] | hepatocyte CLint [8] [µL/min/1e6 cells] | Papp A→B [9] [×10⁻⁶ cm/s] | Structure (SMILES)
90 | 10 | 530 | 62 | 6900 | 15 | 1.5 | < 3 | 1 | CC(Nc1cc(F)cc(F)c1)c1cc(C(=O)N(C)CCO)cc2c(=O)cc(N3CCOCC3)oc12 (racemic)
110 | 8 | 930 | 59 | 2100 | 7 | 2.5 | 5 | – | CCN(C)C(=O)c1cc(C(C)Nc2cc(F)cc(F)c2)c2oc(N3CCOCC3)cc(=O)c2c1 (racemic)
29 | – | 350 | 20 | 280 | – | 2.6 | < 3 | 9.2 | C[C@@H](Nc1cc(F)cc(F)c1)c1cc(C(=O)N2CCC2)cc2c(=O)cc(N3CCOCC3)oc12
59 | 9 | 710 | 44 | 2900 | 14 | 3.1 | < 4 | – | CCNC(=O)c1cc(C(C)Nc2cc(F)cc(F)c2)c2oc(N3CCOCC3)cc(=O)c2c1 (racemic)
57 | 9 | 520 | 54 | 13000 | 31 | 2.1 | < 3 | 0.28 | COCCNC(=O)c1cc(C(C)Nc2cc(F)cc(F)c2)c2oc(N3CCOCC3)cc(=O)c2c1 (racemic)
18 | 6 | 250 | 14 | 960 | 3 | 2.8 | < 3 | 3.5 | CNC(=O)c1cc([C@@H](C)Nc2cc(F)cc(F)c2)c2oc(N3CCOCC3)cc(=O)c2c1
290 | 11 | 2600 | 160 | 2600 | – | 2.2 | 6 | – | COCCN(C)C(=O)c1cc(C(C)Nc2cc(F)cc(F)c2)c2oc(N3CCOCC3)cc(=O)c2c1 (racemic)
160 | 10 | 1600 | 61 | 1700 | 15 | 1.9 | < 3 | – | COc1cc(F)cc(NC(C)c2cc(C(=O)N(C)C)cc3c(=O)cc(N4CCOCC4)oc23)c1 (racemic)
150 | 10 | 1200 | 71 | 3200 | 16 | 3.2 | 17 | – | CCN(CC)C(=O)c1cc(C(C)Nc2cc(F)cc(F)c2)c2oc(N3CCOCC3)cc(=O)c2c1 (racemic)

Source: ChEMBL document CHEMBL3407416, “Discovery of (R)-8-(1-(3,5-difluorophenylamino)ethyl)-N,N-dimethyl-2-morpholino-4-oxo-4H-chromene-6-carboxamide (AZD8186): a potent and selective inhibitor of PI3Kβ and PI3Kδ for the treatment of PTEN-deficient cancers” (J Med Chem, 2015)
